Test results: patent US20120202287A1, “Stem Cell Culture Methods” (priority 2009, published 2012)
One block for each compound: values may come before it.

Legend:
SA121 hESCs = experiment: General (monolayer) differentiation on matrigel in defined media, qRT-PCR of stem cell and differentiation markers after 14 days; assay type: cell-based, human; design: key to NO EHNA EFFECT: X: NO EHNA EFFECT; key to Full EHNA effect: those which maintained at least 50% of the level of NANOG-expression in comparison to EHNA and those that inhibited the expression of PAX6 to 50% or less than the value untreated controls were considered to have an EHNA-like effect; details: for NO EHNA EFFECT: neither NANOG nor PAX6 criterion met; for Full EHNA effect: NANOG at least 50% of EHNA level and PAX6 50% or less of untreated control; for PARTIAL EHNA EFFECT (PAX6): only PAX6 50% or less of untreated control
Method: In order to ascertain the efficacy of the compounds of the present invention, each compound was tested to determine whether it can maintain the stem cell marker NANOG and/or block the differentiation marker PAX6 in the face of differentiating conditions in a manner similar to EHNA. Cells enzymatically passaged onto matrigel-coated dishes and grown for 2 weeks in defined media with or without (control) compound addition were analysed by qRT-PCR to determine the level of NANOG and PAX6 expression.
For general differentiation experiments cells were passaged with trypsin onto matrigel coated twelve-well dishes in the fully supportive media (see above). The media was then changed to defined media 24 h later and any experimental component was first added at this point. The media and experimental supplement were changed daily.
Cells were routinely harvested for qRT-PCR analysis 14 days after the first addition of the experimental compound.
Total RNA was extracted using QIAGEN RNeasy kits (Qiagen Inc, Valencia, Calif., http://www.qiagen.com) and DNaseI treatment was performed using Turbo DNA-Free (Ambion). The absence of genomic DNA was confirmed by quantitative PCR (qPCR) (see below) using glyceraldehyde-3-phosphate dehydrogenase (GAPDH) Taqman primers and probe (MWG). cDNA was synthesized with 2 μg total RNA in 20 μl using Superscript II according to manufacturers' instructions ((Carlsbad, Calif., http://www.Invitrogen.com)). For qPCR, cDNAs were diluted 1 in 60 and 5 μl used per sample in a 15 μl total reaction volume. Platinum pPCR supermix UDG with Rox (Carlsbad, Calif., http://www.Invitrogen.com) was used according to the manufacturer's instructions using an Applied Biosystems 7300 real time PCR system (Applied Biosystems, Warrington, UK, http://europe.appliedbiosystems.com). Each reaction contained 0.6 μM of each primer and Taqman probe (MWG). Biological and technical replicates were each performed in triplicate for each sample, standardised to the GAPDH housekeeping gene and relative expression values were calculated using the 7300 system SDS software (Applied Biosystems, Warrington, UK, http://europe.appliedbiosystems.com).
Cells were enzymatically passaged onto matrigel-coated dishes and grown for 2 weeks in defined media. After 14 days, qRT-PCR was utilised to analyse the expression of a variety of markers of pluripotency and differentiation. In the graphs in FIG. 9 the value 1 was set to the expression level of the gene in undifferentiated SA121 hESCs.
Cells were enzymatically passaged onto matrigel-coated dishes and grown for 2 weeks in defined media (1× confluent T25 tissue culture flask was passaged to 2×12 well dishes) with or without (control) compound addition. All compounds were added at 10 uM and each was performed in triplicate. Media and compounds were changed every 48 hours. After 14 days RNA was isolated and qRT-PCR was utilised to analyse the expression of NANOG and PAX6. The results are illustrated in FIGS. 13 to 17.
In the graphs in FIGS. 13, 14 15, 16 and 17 the value 1 was set relative to the expression level of the gene in the control (no compound) samples. […] This experiment allowed the effect of the EHNA-related compounds to be measured directly in comparison to EHNA. […] Those which had on effect, to these levels, on either PAX6 or NANOG were considered to have a partial-EHNA effect.

[1] = Solubility in 5% DMSO-water; assay type: physicochemical

Structure (SMILES): COc1ncnc2c1ncn2[C@H](C)[C@@H](O)CCc1ccccc1.Cl [HWC43, (3S,4R)-4-(6-methoxy-9H-purin-9-yl)-1-phenylpentan-3-ol hydrochloride]
NO EHNA EFFECT (SA121 hESCs; 10 uM, 14 days, qRT-PCR): X

Structure (SMILES): C[C@H](O)[C@@H](CCc1ccccc1)n1cnc2c(N)ncnc21.Cl [HWC44, (2S,3R)-3-(6-amino-9H-purin-9-yl)-5-phenylpentan-2-ol hydrochloride]
NO EHNA EFFECT (SA121 hESCs; 10 uM, 14 days, qRT-PCR): X

Structure (SMILES): COc1ncnc2c1ncn2[C@H](CCc1ccccc1)[C@H](C)O.Cl [HWC45, (2S,3R)-3-(6-methoxy-9H-purin-9-yl)-5-phenylpentan-2-ol hydrochloride]
NO EHNA EFFECT (SA121 hESCs; 10 uM, 14 days, qRT-PCR): X

Structure (SMILES): CCCCCC[C@H]([C@H](C)O)n1cnc2c(N)ncnc21 [HWC46, (2S,3R)-3-(6-amino-9H-purin-9-yl)nonan-2-ol]
Full EHNA effect (SA121 hESCs; 10 uM, 14 days, qRT-PCR): X

Structure (SMILES): CCCCCC[C@H]([C@H](C)O)n1cnc2c(OC)ncnc21 [HWC47, (2S,3R)-3-(6-methoxy-9H-purin-9-yl)nonan-2-ol]
NO EHNA EFFECT (SA121 hESCs; 10 uM, 14 days, qRT-PCR): X

Structure (SMILES): CCCCCC[C@H](O)[C@@H](C)n1cnc2c(N)ncnc21 [HWC48, (2R,3S)-2-(6-amino-9H-purin-9-yl)nonan-3-ol]
PARTIAL EHNA EFFECT (PAX6) (SA121 hESCs; 10 uM, 14 days, qRT-PCR): X (Those which had on effect, to these levels, on either PAX6 or NANOG were considered to have a partial-EHNA effect)

Structure (SMILES): CCCCCC[C@H](O)[C@@H](C)n1cnc2c(OC)ncnc21 [HWC49, (2R,3S)-2-(6-methoxy-9H-purin-9-yl)nonan-3-ol]
NO EHNA EFFECT (SA121 hESCs; 10 uM, 14 days, qRT-PCR): X

Structure (SMILES): CCCCCC[C@@H](O)[C@H](C)n1cnc2c(N)ncnc21 [HWC50, (2S,3R)-2-(6-amino-9H-purin-9-yl)nonan-3-ol]
PARTIAL EHNA EFFECT (PAX6) (SA121 hESCs; 10 uM, 14 days, qRT-PCR): X (Those which had on effect, to these levels, on either PAX6 or NANOG were considered to have a partial-EHNA effect)

Structure (SMILES): CCCCCC[C@@H](O)[C@H](C)n1cnc2c(OC)ncnc21 [HWC51, (2S,3R)-2-(6-methoxy-9H-purin-9-yl)nonan-3-ol]
NO EHNA EFFECT (SA121 hESCs; 10 uM, 14 days, qRT-PCR): X

Structure (SMILES): CCCCCC[C@@H]([C@@H](C)O)n1cnc2c(N)ncnc21 [HWC52, (2R,3S)-3-(6-amino-9H-purin-9-yl)nonan-2-ol]
PARTIAL EHNA EFFECT (PAX6) (SA121 hESCs; 10 uM, 14 days, qRT-PCR): X (Those which had on effect, to these levels, on either PAX6 or NANOG were considered to have a partial-EHNA effect)

Structure (SMILES): CCCCCC[C@@H]([C@@H](C)O)n1cnc2c(OC)ncnc21 [HWC53, (2R,3S)-3-(6-methoxy-9H-purin-9-yl)nonan-2-ol]
NO EHNA EFFECT (SA121 hESCs; 10 uM, 14 days, qRT-PCR): X

Structure (SMILES): CCCCC[C@H](O)[C@@H](C)n1cnc2c(N)ncnc21 [HWC58, (2R,3S)-2-(6-amino-9H-purin-9-yl)octan-3-ol]
PARTIAL EHNA EFFECT (NANOG) (SA121 hESCs; 10 uM, 14 days, qRT-PCR, only NANOG at least 50% of EHNA level): X (Those which had on effect, to these levels, on either PAX6 or NANOG were considered to have a partial-EHNA effect)

Structure (SMILES): CCCCC[C@H]([C@H](C)O)n1cnc2c(N)ncnc21 [HWC59, (2S,3R)-3-(6-amino-9H-purin-9-yl)octan-2-ol]
NO EHNA EFFECT (SA121 hESCs; 10 uM, 14 days, qRT-PCR): X

Structure (SMILES): CCC[C@H]([C@H](C)O)n1cnc2c(N)ncnc21 [HWC60, (2S,3R)-3-(6-Amino-9H-purin-9-yl)hexan-2-ol]
NO EHNA EFFECT (SA121 hESCs; 10 uM, 14 days, qRT-PCR): X

Structure (SMILES): CCC[C@H](O)[C@@H](C)n1cnc2c(N)ncnc21 [HWC61, (2R,3S)-2-(6-amino-9H-purin-9-yl)hexan-3-ol]
NO EHNA EFFECT (SA121 hESCs; 10 uM, 14 days, qRT-PCR): X

Structure (SMILES): CCCCCCCCCCn1cnc2c(N)ncnc21 [HWC64, 9-(decan-1-yl)-9H-purin-6-amine]
Full EHNA effect (SA121 hESCs; 10 uM, 14 days, qRT-PCR): X

solubility in 5% DMSO-water [1]: poor solubility
Structure (SMILES): CCCCCCCCCCn1cc2c(N)ncnc2n1 [HWC-3, 2-decyl-2H-pyrazolo[3,4-d]pyrimidin-4-amine]

Structure (SMILES): CCCCCCC(C(C)O)n1cnc2cccnc21.Cl (stereo not shown) [HWC-5, 3-(3H-imidazo[4,5-b]pyridin-3-yl)nonan-2-ol hydrochloride]
prevention of differentiation of hESCs (SA121 hESCs; FIG. 10): can prevent differentiation of hESCs | PAX6 expression in differentiating conditions (SA121 hESCs; qRT-PCR, 14 days): inhibiting PAX6 expression | NANOG expression in differentiating conditions (SA121 hESCs; qRT-PCR, 14 days, relative to untreated control): capable of maintaining NANOG

Structure (SMILES): CC(C)Cn1c(=O)n(C)c(=O)c2[nH]cnc21 [IBMX, 3-Isobutyl-1-methylxanthine, reference compound]
PAX6 expression in differentiating conditions (SA121 hESCs; qRT-PCR, 14 days): nor did they inhibit PAX6 induction | stem cell marker expression (NANOG, ZFP42, POU5F1) in differentiating conditions (SA121 hESCs; qRT-PCR, 14 days, FIG. 9a): Neither BAY nor IBMX maintained stem cell marker expression
